Results taken from PMC12852919 (Scientific Reports, 2025).
Several values for one entry are separate records, joined by “and”; a condition that tells them apart may be missing. Equal values may be shown once. Read-outs that look alike come from different tables or passages of the source.

Experiments:
[1] = system: SW-872 cells; assay: Cell cycle distribution by flow cytometry, DAPI staining; type: cell-based, human; conditions: SW-872, IC25 concentration, 18 h
[2] = Solubility in water; type: physicochemical

solubility in water [2]: 4420 µg/mL and 4400 µg/mL | solubility in water ([2]; listed as L^Cu): 1600 µg/mL | solubility in water ([2]; listed as L^Fe): 2500 µg/mL | solubility in water ([2]; listed as L^Mn): 3200 µg/mL | solubility in water ([2]; listed as L^Ni): 1400 µg/mL | solubility in water ([2]; listed as L^Zn): 2400 µg/mL
SMILES: O=S(=O)([O-])c1ccc(O)c(C=NNC(=S)Nc2cccc3ccccc23)c1.[Na+] [L, sodium-4-hydroxy-3-((2-(naphthalene-1-ylcarbamothioyl)hydrazono)methyl)benzenesulfonate]
Cell cycle distribution, S [1]: 32.94 | effect on cell cycle [1]: cell cycle arrest in the S phase
